Article PMC9101373, “Design of DNA Intercalators Based on 4-Carboranyl-1,8-Naphthalimides: Investigation of Their DNA-Binding Ability and Anticancer Activity” (International Journal of Molecular Sciences, 2022)

Key:
calf thymus DNA (ct-DNA) = assay: Melting temperature (Tm) measurements of ct-DNA, thermal denaturation; assay type: binding; conditions: r = [compound]/[ct-DNA] = 0.3; pH 7.0, 20 mM cacodylate buffer; Tm of ct-DNA alone 74 °C
Description: The melting temperature (Tm) of DNA is defined as the temperature at which 50% of the DNA is in form of single strands forming randomly coiled structures. DNA melting is measured by the absorbance of UV light (260 nm) by the DNA solution, where the amount of UV light absorbed is proportional to the fraction of non-bonded base pairs. The majority of DNA-binding small molecules known thus far stabilize duplex DNA against heat denaturation. A high, drug-induced increase in the Tm of DNA is generally viewed as an excellent criterion to select DNA ligands and is a common feature of several anticancer drugs such as intercalators (a significant increase in Tm = 3–8 °C is observed for strong intercalation) and alkylators. The reverse situation (destabilization of DNA to facilitate its denaturation) may be an attractive option to identify therapeutic agents acting on the DNA structure.
Our study conducted Tm measurement to estimate the impact of 1,8-naphthalimides bearing the carborane cluster on DNA stabilization (Table 1, Figures S249–S253, ESI).
The measurements were performed by adding aliquots of DMSO stock solution of the tested compounds to the buffer solution (pH 7.0, 20 mM, cacodylate buffer, DMSO content of the final solution = 0.24–0.36%). The Tm curves were collected at r = 0.3 (r = [compound]/[ct-DNA]) to assure the dominant binding mode. Thermal melting curves were determined by following the absorption change at 260 nm as a function of temperature by using a GBC Cintra10 UV–vis spectrometer (Dandenong, Australia) equipped with a GBC Thermocell Peltier Power Supply (Dandenong, Australia) using a 1 cm path length cell. The absorbance of the samples was monitored at 260 nm from 30 to 90 °C (95 °C for compounds 54–61) with a heating rate of 1 °C/min. Tm values are the midpoints or the transition curves determined from the maximum of the first derivative. The ΔTm values were calculated by subtracting the Tm of the free nucleic acid from the Tm of the sample. Every Tm value reported in this study was average at least three measurements. The error in Tm was 0.5 °C.

HepG2 cells = assay: Apoptosis/necrosis assay by flow cytometry (Annexin V); assay type: cell-based, human; conditions: HepG2, 24 h at total IC50, Annexin V
Description: To investigate whether compounds 54–61 induced apoptosis in HepG2 cells, we incubated the cells with these compounds for 24 h and performed a flow cytometry analysis. The concentration chosen for each compound corresponded to their total IC50 values. After incubation, the cells were stained with Annexin V Alexa Fluor 647 conjugate, which enabled detection of the externalization of phosphatidylserine, one of the earliest indicators of apoptosis. To eliminate the influence of the solvent (DMSO), we also analyzed its ability to induce apoptosis in a volume that corresponded to the highest concentration. […] The other compounds, 57, 58, 59, and 61, could not induce as high apoptosis as those mentioned above. Approximately one-third of cells targeted apoptotic pathways (33.4%, 39.1%, 23.1%, and 37.1%, respectively) when treated with these compounds (Figure 6).
HepG2 cells (3.85 × 10^5) were seeded onto 6-well plates, cultured in supplemented EMEM medium (Corning®) at 37 °C and 5% CO2 saturation, and incubated until 70–80% cell confluency was achieved. Subsequently, the cells were treated for 24 h, with the tested compounds 54–61 were added at a concentration corresponding to their total IC50 values. Next, the cells were detached with trypsin (Corning®) and washed twice with DPBS (1 mL) (Thermo Fisher Scientific, Waltham, MA, USA). In the meantime, annexin-binding buffer (10 mM HEPES, 140 mM NaCl, and 2.5 mM CaCl2, pH 7.4) was prepared. The cells were resuspended in annexin-binding buffer (100 μL per assay) and stained with Alexa Fluor™ 680 annexin V conjugate (ex/em: ~679/702 nm, Thermo Fisher Scientific, Waltham, MA, USA) according to the manufacturer’s protocol (5 μL of the annexin V conjugate was added to each 100 μL of cell suspension) and incubated for 15 min at RT, in the dark. After the incubation period, annexin-binding buffer (400 μL) was added, mixed gently, and the samples were kept on ice during the analysis. The cells were analyzed immediately after staining with […] by Accuri C6 flow cytometer (Becton Dickinson, Franklin Lake, NJ, USA) with excitation at 635 nm. The rate of apoptosis was evaluated immediately by FlowJo software.
Figure 6 Effect of compounds 54 (5.5 µM), 55 (3.4 µM), 56 (12 µM), 57 (3.1 µM), 58 (3.9 µM), 59 (5.4 µM), 60 (31 µM), and 61 (4.8 µM) on cell death in HepG2 cells. The cells were incubated with the tested compounds for 24 h at the concentration corresponding to the total IC50 values. Quantitative flow cytometry analysis was performed to evaluate apoptosis/necrosis induced by compounds after 24 h of treatment. Data are presented as the mean ± SD of three independent experiments. Statistical significance is indicated with asterisks: (ns) p > 0.05, (**) p < 0.01, (***) p < 0.001, and (****) p < 0.0001.

Substance | ΔTm ct-DNA (calf thymus DNA (ct-DNA)) [°C] | apoptosis rate, apoptotic cells (HepG2 cells) [%]
N-[2-N-Pyrrolidinyl)ethyl]-4-[(6-(2-(1,7-dicarba-closo-dodecaborane-1-yl)-ethylamino)hexyl)amino]-1,8-naphthalimide [Compound 61] | 12.33 | 37.1
N-[2-(Dimethylamino)ethyl]-4-[(6-(2-(1,2-dicarba-closo-dodecaborane-1-yl)-ethylamino)hexyl)amino]-1,8-naphthalimide [Compound 58] | 11.00 | 39.1
N-[2-(Pyrrolidin-1-yl)ethyl]-4-[(2-(2-(1,7-dicarba-closo-dodecaborane-1-yl)-ethylamino)ethyl)amino]-1,8-naphthalimide [Compound 57] | 11.00 | 33.4
N-[2-(Dimethylamino)ethyl]-4-[(2-(2-(1,2-dicarba-closo-dodecaborane-1-yl)-ethylamino)ethyl)amino]-1,8-naphthalimide [Compound 54] | 7.67 | 44.3
N-[2-N-Pyrrolidinyl)ethyl]-4-[(6-(2-(1,2-dicarba-closo-dodecaborane-1-yl)-ethylamino)hexyl)amino]-1,8-naphthalimide [Compound 60] | 7.67 | 46.9
N-[2-(Dimethylamino)ethyl]-4-[(2-(2-(1,7-dicarba-closo-dodecaborane-1-yl)-ethylamino)ethyl)amino]-1,8-naphthalimide [Compound 55] | 9.67 | 48.2
N-[2-(Dimethylamino)ethyl]-4-[(6-(2-(1,7-dicarba-closo-dodecaborane-1-yl)-ethylamino)hexyl)amino]-1,8-naphthalimide [Compound 59] | 8.33 | 23.1
N-[2-(Pyrrolidin-1-yl)ethyl]-4-[(2-(2-(1,2-dicarba-closo-dodecaborane-1-yl)-ethylamino)ethyl)amino]-1,8-naphthalimide [Compound 56] | 7.67 | 77.4
